Counter-ions that a name gives are not always drawn. Like-named read-outs stand apart in the source and are kept apart here. Blank lines part the entries; values can stand above or below the molecule they belong to.
Experiments:
S1P2 = S1P2 (Homo sapiens, UniProt O95136); details: read-out: EC50 β-arrestin; cited from earlier work
S1P3 = S1P3 (Homo sapiens, UniProt Q99500); details: read-out: EC50 β-arrestin; cited from earlier work
lymphocyte [1] = details: mouse; reflects total plasma concentration; read-out: calculated lymphocyte lowering IC50; cited from earlier work
lymphocyte [2] = details: rat; reflects total plasma concentration; read-out: calculated lymphocyte lowering IC50; cited from earlier work
lymphocyte [3] = details: dog; reflects total plasma concentration; read-out: calculated lymphocyte lowering IC50; cited from earlier work
lymphocyte [4] = details: monkey; reflects total plasma concentration; read-out: calculated lymphocyte lowering IC50; cited from earlier work
[5] = human; cited from earlier work
[6] = rat; cited from earlier work
[7] = test system: experimental autoimmune encephalomyelitis (EAE) model; details: cited from earlier work
[8] = test system: collagen induced arthritis (CIA) model; details: cited from earlier work
lymphocyte count = assay: Phase 1b clinical trial, lymphocyte count lowering in blood; type: in vivo, healthy volunteers
Procedure: The L-arginine salt of Compound 1 was selected for clinical evaluation. A randomized, double-blind, placebo-controlled Phase 1b clinical trial was conducted to evaluate the safety, tolerability, pharmacodynamics, and pharmacokinetics of multiple-ascending doses of the L-arginine salt of Compound 1 in five different dosing cohorts. A total of 50 healthy volunteers received the L-arginine salt of Compound 1 and 10 healthy volunteers received placebo for 21 days.

[9] = BET specific surface area, nitrogen adsorption; type: physicochemical; details: N2 adsorption at 77.3 K, eleven point method, P/P0 about 0.05 to about 0.3, degassed at 25° C. for 960 minutes
Source text: In addition to the techniques described herein, specific surface can also be used to characterize the free-plates of the present invention. Accordingly, the specific surface area values disclosed in the present invention have been obtained by means of a specific surface area analysis technique based on the BET (Brunauer, Emmett and Teller) theory, which is a well-accepted theory known in the art for the calculation of surface areas of solids by means of measuring their physical adsorption of gas molecules (see: Brunauer, S.; Emmett, P. H.; and Teller, E.; J. Am. Chem. Soc., 1938, 60, 309). In particular, the specific surface area values measured in the present invention have been calculated from the BET surface area plot obtained by measuring the quantity of nitrogen gas molecules adsorbed by a weighted amount of solid at different relative pressures (P/P0) within the range 0.05-0.3 (P/P0), at 77.3 K. The measurement of the adsorption of gas molecules was carried out by means of a Micromeritics™ TriStar II BET surface analyzer having the characteristics as set out below in Example 14. Namely, nitrogen gas was used for the adsorption measurement. The sample for each analysis was degassed at 25° C. for 960 minutes under vacuum (i.e., 100 mm/Hg). The determination of the adsorption of nitrogen was measured at 77.3 K at eleven relative pressures (P/P0) sufficiently dispersed within the range of about 0.05 to about 0.30 (i.e. eleven absolute pressures in the range of about 36 mm Hg to about 223 mm Hg relative to the saturated pressure at the time of measurement that ranged from about 738 mmHg to about 743 mmHg).
In general, the specific surface areas for Lots A1-A9 (plates) and H1-H6 (spherulites) were determined by physical adsorption of nitrogen gas on the surface of the sample from each lot using the well-established technique based on the Brunauer, Emmett, and Teller theory.
The BET surface areas for the samples were measured by Micromeritics Pharmaceutical Services using a Micromeritics™ TriStar II BET surface area analyzer (MicroActive for TriStar II Plus 2.02 Software™). The samples were degassed at 25° C. for 960 minutes under vacuum (i.e., 100 mm/Hg). The determination of the adsorption of N2 at 77.3 K was measured using a BET surface area eleven point method with relative pressures in the range of about 0.05 to about 0.3 (P/P0) for a weighed amount of each sample, see TABLE M1, TABLE M2, and TABLE N below. The analysis was performed per ISO9277.

[10] = Dynamic moisture-sorption (DMS) analysis; type: physicochemical; details: DMS at 25° C.
Procedure: A dynamic moisture-sorption (DMS) analysis was performed on representative Lot A2 (see, Example 3, TABLE A) of the L-arginine salt of Compound 1 having the plate morphology and representative Lot H2 (prepared in a similar manner as described in Example 8, Method 2 Steps G and H in WO2011/094008; and described in TABLE K, Example 8 herein) of the L-arginine salt of Compound 1 having the spherulite morphology. […] By comparison the L-arginine salt of Compound 1 (spherulite morphology) gained between 0.5% weight (adsorption cycle) and 0.7% weight (desorption cycle) at 90% RH and 25° C. […] DMS analysis was performed using a TA Instruments Q5000 SA (EQ2418). Instrument performance was verified in-house. Samples were added to a tared sample holder on the Q5000 SA balance. The sample was dried at 40° C. and then analyzed at 25° C. with an adsorption phase from 30% RH to 90% RH and a desorption phase from 90% RH to 10% RH.

Sequence of S1P2 (O95136 whole entry, species assumed): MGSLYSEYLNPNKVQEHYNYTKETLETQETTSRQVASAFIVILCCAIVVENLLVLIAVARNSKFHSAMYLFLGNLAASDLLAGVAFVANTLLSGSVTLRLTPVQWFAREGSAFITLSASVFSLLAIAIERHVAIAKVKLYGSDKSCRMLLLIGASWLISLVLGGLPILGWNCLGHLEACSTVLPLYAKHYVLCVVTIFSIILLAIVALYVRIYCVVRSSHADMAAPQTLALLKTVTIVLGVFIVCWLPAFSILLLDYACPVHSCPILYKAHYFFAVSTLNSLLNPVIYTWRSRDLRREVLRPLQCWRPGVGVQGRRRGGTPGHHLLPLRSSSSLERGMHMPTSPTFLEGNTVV
Sequence of S1P3 (Q99500 whole entry, species assumed): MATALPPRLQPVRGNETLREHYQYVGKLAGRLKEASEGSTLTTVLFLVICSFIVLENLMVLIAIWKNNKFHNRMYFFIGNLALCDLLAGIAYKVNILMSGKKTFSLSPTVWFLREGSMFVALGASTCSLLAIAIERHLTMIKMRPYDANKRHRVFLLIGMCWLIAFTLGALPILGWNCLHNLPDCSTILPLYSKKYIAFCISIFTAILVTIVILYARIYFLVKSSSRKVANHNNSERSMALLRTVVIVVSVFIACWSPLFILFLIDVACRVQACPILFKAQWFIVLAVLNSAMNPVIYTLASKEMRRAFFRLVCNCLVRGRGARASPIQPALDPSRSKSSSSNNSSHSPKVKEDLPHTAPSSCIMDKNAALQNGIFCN

Structure (SMILES): O=C(O)C[C@H]1CCc2c1[nH]c1ccc(OCc3ccc(C4CCCC4)c(C(F)(F)F)c3)cc21 [Compound 1, (R)-2-(7-(4-cyclopentyl-3-(trifluoromethyl)benzyloxy)-1,2,3,4-tetrahydrocyclopenta[b]indol-3-yl)acetic acid]
EC50 (S1P2): > 10000 nM
EC50 (S1P3): > 10000 nM
IC50 (lymphocyte [1]): 101 nM
IC50 (lymphocyte [2]): 51 nM
IC50 (lymphocyte [3]): 58 nM
IC50 (lymphocyte [4]): 98 nM
protein bound [5]: 97.8%
protein bound [6]: 98.0%
EAE disease, therapeutic administration ([7]; administered day 18 to day 37, all animals with severe disease at start, similar to fingolimod): reverse the disease relative to vehicle
EAE disease onset and severity, prophylactic ([7]; prophylactic dosing, discontinued at day 25, relative to vehicle): prevented the onset and severity of disease relative to vehicle up to day 25
histological parameters in knees and ankles ([8]; CIA rats): Improvement in histological parameters in the knees and ankles
ankle diameters ([8]; prophylactic daily oral dose, day 17, similar to fingolimod or methotrexate): significant reduction in ankle diameters

Structure (SMILES): O=C(O)C[C@H]1CCc2c1[nH]c1ccc(OCc3ccc(C4CCCC4)c(C(F)(F)F)c3)cc21 [L-arginine salt of Compound 1, L-arginine salt of (R)-2-(7-(4-cyclopentyl-3-(trifluoromethyl)benzyloxy)-1,2,3,4-tetrahydrocyclo-penta[b]indol-3-yl)acetic acid]
lymphocyte count, mean decrease from baseline (lymphocyte count; multiple-ascending doses for 21 days, dose-dependent): up to 69%
lymphocyte count recovery to baseline (lymphocyte count; on average, after conclusion of dosing): within one week

BET Surface Area ([9]; listed as A1): 0.7 m^2/g
Structure (SMILES): O=C(O)C[C@H]1CCc2c1[nH]c1ccc(OCc3ccc(C4CCCC4)c(C(F)(F)F)c3)cc21 [Lot A1]

hygroscopicity [10]: non-hygroscopic
weight gain at 90% RH ([10]; 90% RH): 0.2 % weight
BET Surface Area ([9]; listed as A2): 0.7 m^2/g
Structure (SMILES): O=C(O)C[C@H]1CCc2c1[nH]c1ccc(OCc3ccc(C4CCCC4)c(C(F)(F)F)c3)cc21 [Lot A2]

BET Surface Area ([9]; listed as A3): 1.5 m^2/g
Structure (SMILES): O=C(O)C[C@H]1CCc2c1[nH]c1ccc(OCc3ccc(C4CCCC4)c(C(F)(F)F)c3)cc21 [Lot A3]

BET Surface Area ([9]; listed as A4): 1.0 m^2/g
Structure (SMILES): O=C(O)C[C@H]1CCc2c1[nH]c1ccc(OCc3ccc(C4CCCC4)c(C(F)(F)F)c3)cc21 [Lot A4]

BET Surface Area ([9]; listed as A5): 0.8 m^2/g
Structure (SMILES): O=C(O)C[C@H]1CCc2c1[nH]c1ccc(OCc3ccc(C4CCCC4)c(C(F)(F)F)c3)cc21 [Lot A5]

BET Surface Area ([9]; listed as A6): 2.4 m^2/g
Structure (SMILES): O=C(O)C[C@H]1CCc2c1[nH]c1ccc(OCc3ccc(C4CCCC4)c(C(F)(F)F)c3)cc21 [Lot A6]

BET Surface Area ([9]; listed as A7): 1.9 m^2/g
Structure (SMILES): O=C(O)C[C@H]1CCc2c1[nH]c1ccc(OCc3ccc(C4CCCC4)c(C(F)(F)F)c3)cc21 [Lot A7]

BET Surface Area ([9]; listed as A8): 3.0 m^2/g
Structure (SMILES): O=C(O)C[C@H]1CCc2c1[nH]c1ccc(OCc3ccc(C4CCCC4)c(C(F)(F)F)c3)cc21 [Lot A8]

BET Surface Area ([9]; listed as A9): 3.1 m^2/g
Structure (SMILES): O=C(O)C[C@H]1CCc2c1[nH]c1ccc(OCc3ccc(C4CCCC4)c(C(F)(F)F)c3)cc21 [Lot A9]

BET Surface Area ([9]; listed as H1): 10.0 m^2/g
Structure (SMILES): O=C(O)C[C@H]1CCc2c1[nH]c1ccc(OCc3ccc(C4CCCC4)c(C(F)(F)F)c3)cc21 [Lot H1]

weight gain at 90% RH (adsorption cycle) ([10]; 90% RH, adsorption cycle): 0.5 % weight
weight gain at 90% RH (desorption cycle) ([10]; 90% RH, desorption cycle): 0.7 % weight
BET Surface Area ([9]; listed as H2): 13.5 m^2/g
Structure (SMILES): O=C(O)C[C@H]1CCc2c1[nH]c1ccc(OCc3ccc(C4CCCC4)c(C(F)(F)F)c3)cc21 [Lot H2]

BET Surface Area ([9]; listed as H3): 11.8 m^2/g
Structure (SMILES): O=C(O)C[C@H]1CCc2c1[nH]c1ccc(OCc3ccc(C4CCCC4)c(C(F)(F)F)c3)cc21 [Lot H3]

BET Surface Area ([9]; listed as H4): 12.0 m^2/g
Structure (SMILES): O=C(O)C[C@H]1CCc2c1[nH]c1ccc(OCc3ccc(C4CCCC4)c(C(F)(F)F)c3)cc21 [Lot H4]

BET Surface Area ([9]; listed as H5): 10.9 m^2/g
Structure (SMILES): O=C(O)C[C@H]1CCc2c1[nH]c1ccc(OCc3ccc(C4CCCC4)c(C(F)(F)F)c3)cc21 [Lot H5]

BET Surface Area ([9]; listed as H6): 12.3 m^2/g
Structure (SMILES): O=C(O)C[C@H]1CCc2c1[nH]c1ccc(OCc3ccc(C4CCCC4)c(C(F)(F)F)c3)cc21 [Lot H6]

— patent US12378198B2, “Crystalline l-arginine salt of (R)-2-(7-(4-cyclopentyl-3-(trifluoromethyl)benzyloxy)-1,2,3,4-tetrahydrocyclo-penta [b]indol-3-yl)acetic acid(compound1) for use in SIPI receptor-associated disorders” (Arena Pharmaceuticals, Inc., priority 2015, dated 2025)
